Patent US20040167170A1, “Methods of preventing breast cancer” (priority 1996, published 2004)

Assays:
Type in all cases: in vivo, human
[1] = test system: breast cancer in postmenopausal women; assay: Phase III double-blind placebo-controlled raloxifene trials, all placebo-controlled studies combined: incidence of breast cancer; conditions: for Relative Risk (Raloxifene to Placebo) of breast cancer / Raloxifene Cases n/N (%): all raloxifene doses pooled; for Raloxifene Cases n/N (%): N estimated
Excerpt: (§1) As support for the utility of the current invention, the interim safety results of Phase III clinical trials with raloxifene are presented, below.
(§2) The majority of cases of breast carcinoma have occurred in the large, ongoing osteoporosis treatment study of 7704 postmenopausal women with established osteoporosis. However additional cases have been reported in smaller studies of postmenopausal women at risk for osteoporosis. The studies reported herein are double-blind and placebo-controlled; most have durations of approximately three years and were designed to determine the efficacy of raloxifene to prevent or treat osteoporosis in postmenopausal women. In addition, the studies provide information on the status of cardiovascular health and other major medical conditions (including the incidence of breast carcinoma). Patients were randomly assigned to receive either placebo, 30 mg, 60 mg, 120 mg or 150 mg of drug per day, orally. All patients and investigators are blinded to study drug assignment (double-blind design). All patients in all groups received daily calcium supplements of approximately 500 mg/day. In addition, patients in the large, 7704-patient treatment study received Vitamin D supplements, 400-600 IU/day.
(§3) Subjects selected for these studies are postmenopausal women (at least 2 years from the time of the last menstrual period), ages range from approximately forty-five to eighty years.
(§4) Typical exclusion criteria from participation in these studies included: l)the presence of serious systemic disease, 2)acute or chronic liver disease, 3)substantially impaired kidney function, 4)subjects who, in the opinion of the investigator, have poor medical or psychiatric risk factors for inclusion in a clinical trial, e.g., drug or alcohol abuse, etc. 5)subjects with any history of cancer within five years of entry into the study, with the exception of superficial lesions, e.g., basal cell carcinoma of the skin 6)the presence of abnormal uterine bleeding. Most important of the exclusion criteria was the exclusion of women with present or past personal history of breast cancer or other estrogen-dependent neoplasia. These exclusion criteria generate a population of subjects which reflects the general population in regard to the risk of developing breast carcinoma, or in other words, those persons at no particular increased risk of developing breast cancer.
(§5) Potential subjects were screened prior to enrollment into the study. Subjects were required to reveal their medical histories and current medical conditions. All potential patients were required either to have a baseline mammogram or ultrasound evaluation of the breast, or to have had one of these procedures in the 12-month period preceding study entry. In most studies, a two-year follow-up mammogram is required; however, annual mammograms are recommended. All subjects with diagnosed and reported carcinomas of the breast were required to discontinue immediately from study participation, and were referred by the site investigator for appropriate oncologic evaluation and care.
The overall ratio of treatment assignments for randomized patients (raloxifene to placebo) is approximately 2:1.
(§6) The results shown in Tables 1-4 are for subjects with histopathologic diagnoses of carcinoma of the breast. The data include results from optional one year mammograms, as well as the required baseline and two year follow-up mammograms. Once a diagnosis of breast cancer was made, these subjects were discontinued from the study and their status decoded to reveal the therapy (arm) to which they been assigned (i.e. what study drug they had received).
(§7) For the studies reported in this invention, the number of patients randomly assigned to receive placebo is approximately 3195. The number of patients randomly assigned to receive raloxifene (all doses combined) is approximately 6681. […] Table 1 presents the results for all placebo-controlled studies, with data for all doses of raloxifene pooled. […]

[2] = test system: breast cancer in postmenopausal women with established osteoporosis; assay: Large (7704-patient) osteoporosis treatment study of postmenopausal women with established osteoporosis: incidence of breast cancer; conditions: for Relative Risk (Raloxifene to Placebo) of breast cancer / Raloxifene Cases n/N (%): 60 and 120 mg/day; for Raloxifene Cases n/N (%): N estimated
Excerpt: as §1, §2, §3, §4, §5, §6, §7

postmenopausal women = assay: Integrated safety analysis of Phase III clinical trials of raloxifene for prevention or treatment of osteoporosis; conditions: all doses integrated; more than 12,850 patient-years of exposure; nearly 3 years of clinical experience
Excerpt: Because the goal of disease prevention is to protect women from the carcinogenic event (or the occurrence of precancerous lesions) and the subsequent promotion or progression to invasive disease (cancer), prolonged use of a preventive therapeutic agent is necessary (Kelloff et.al. Approaches to the Development and Marketing Approval of Drugs that Prevent Cancer, Cancer Epidemiology, Biomarkers & Prevention, vol 4, pp.1-10, 1995). […] Raloxifene has been studied in more than 12,000 subjects. Extensive integrated data from Phase III clinical trials of raloxifene for the prevention or treatment of osteoporosis in postmenopausal women, has been analyzed for safety. When all doses of raloxifene are integrated, this analysis has included more than 12,850 patient-years of exposure to raloxifene.

[3] = 1-Year Follow-up mammograms (6-18 months)
[4] = 2-year Follow-up mammograms (18-30 months)
[5] = Baseline mammograms (1-6 months)
[6] = diagnosis at least 1 month after therapy assignment
[7] = diagnosis at least 12 months after therapy assignment
[8] = vs placebo, cases at least 12 months after randomization
[9] = vs placebo, diagnosed at least one month after random assignment

O=C(c1ccc(OCCN2CCCCC2)cc1)c1c(-c2ccc(O)cc2)sc2cc(O)ccc12 [Raloxifene] was tested. Which “Raloxifene Cases” value [1, 3] did it give?
Its value is 7.

What about the “Relative Risk of breast cancer” value [1, 3] of the same molecule?
The value was 0.56.

And the “Raloxifene Cases” value [1, 4]?
The value was 5.

What about the “Relative Risk of breast cancer” value [1, 4] of the same molecule?
The value was 0.15.

What about the “Raloxifene Cases” value [1, 5] of the same molecule?
Its value is 5.

What about the “Relative Risk of breast cancer” value [1, 5] of the same molecule?
Its value is 1.20.

What about the “Relative Risk (Raloxifene to Placebo) of breast cancer” value (shortened to “Relative Risk (Raloxifene to Placebo)”) [1, 6] of the same molecule?
The value was 0.36.

What about the “Raloxifene Cases n/N (%)” value [1, 6] of the same molecule?
Its value is 18/6681.

What about the “Relative Risk (Raloxifene to Placebo)” value [1, 7] of the same molecule?
The value was 0.23.

And the “Raloxifene Cases n/N (%)” value [1, 7]?
Its value is 10/6681.

And the “breast cancer cases reported in the raloxifene treatment groups” value ([1]; placebo-controlled trials of at least 6 months duration, more than 1-month of treatment, raloxifene to placebo approximately 2:1)?
Its value is 18 cases.

What about the “decrease in the incidence of breast cancer” value [1, 8] of the same molecule?
Its value is 77%.

And the “decrease in the rate of breast cancer” value [1, 9]?
The value was 64%.

What about the “Raloxifene Cases” value [2, 3] of the same molecule?
Its value is 4.

And the “Relative Risk of breast cancer” value [2, 3]?
The value was 0.33.

And the “Raloxifene Cases” value [2, 4]?
The value was 3.

What about the “Relative Risk of breast cancer” value [2, 4] of the same molecule?
Its value is 0.12.

What about the “Raloxifene Cases” value [2, 5] of the same molecule?
Its value is 5.

What about the “Relative Risk of breast cancer” value [2, 5] of the same molecule?
Its value is 1.25.

And the “Relative Risk (Raloxifene to Placebo)” value [2, 6]?
The value was 0.29.

And the “Raloxifene Cases n/N (%)” value [2, 6]?
The value was 12/5317.

And the “Relative Risk (Raloxifene to Placebo)” value [2, 7]?
Its value is 0.14.

And the “Raloxifene Cases n/N (%)” value [2, 7]?
The value was 5/5317.

And the “decrease in the incidence of breast carcinoma” value [2, 8]?
Its value is 86%.

And the “decrease in the rate of breast cancer” value [2, 9]?
Its value is 71%.

And the tolerability / safety (postmenopausal women)?
Its tolerability / safety is “extremely well-tolerated”.
